From patent US20050208549A1, “Testing endosymbiont cellular organelles and compounds identifiable therewith” (priority 2000, published 2005)

Columns and labels:
Fibroblast cells = experiment: NASBA ratio of mitochondrial RNA to mitochondrial DNA in cultured fibroblast cells; type: cell-based; conditions: culture period of four weeks, antiviral drugs at 3 μM and 30 μM
Procedure: In Table 1, the primers and probes used in the examples are summarized. Standard NASBA nucleic acid amplification reactions were performed in a 20 μl reaction volume and contained: 40 mM Tris-pH 8.5, 70 mM KCl, 12 mM MgCl2, 5 mM dithiothreitol, 1 mM dNTPs (each), 2 mM rNTPs (each), 0.2 μM primer (each), 0.05 μM molecular beacon, 375 mM sorbitol, 0.105 μg/μl bovine serum albumin, 6.4 units AMV RT, 32 units T7 RNA polymerase, 0.08 units RNAse H and input nucleic acid. The complete mixture, except the enzymes, sorbitol and/or bovine serum albumin was, prior to adding the enzyme mixture, heated to 65° C. for two minutes in order to denature any secondary structure in the RNA and to allow the primers to anneal. After cooling the mixture to 41° C., the enzymes were added. The amplification took place at 41° C. for 90 minutes in a fluorimeter (CytoFluor 2000) and the fluorescent signal was measured every minute (using the filter set 530/25 nm and 485/30 nm). […]
To achieve quantification, a dilution series of target sequences for a particular primer set was amplified and the time points at which the reactions became positive (the time to positivity, TTP) were plotted against the input amounts of nucleic acid. This way a calibration curve was created that could be used to read TTP values of reactions with unknown amounts of input and deduce the input amount. […]

Fibroblasts = experiment: One-tube duplex NASBA ratio of mitochondrial RNA and chromosomal DNA in fibroblasts cultured with ddC; type: cell-based
Procedure: In this example, the NASBA nucleic acid amplification reactions for DNA target sequences were performed in a 20 μl reaction volume and contained: 40 mM Tris-pH 8.5, 70 mM KCl, 12 mM MgCl2, 5 mM dithiotreitol, 1 mM dNTPs (each), 2 mM rNTPs (each), 0.2 μM primer (each), 0.05 μM molecular beacon, 1.5 units restriction enzyme Msp I, 375 mM sorbitol, 0.105 μg/μl bovine serum albumin, 6.4 units AMV RT, 32 units T7 RNA polymerase, 0.08 units RNAse H and input nucleic acid. The complete mixture, except the enzymes sorbitol and bovine serum albumin, was, prior to adding the enzyme mixture, incubated at 37° C. for 25 minutes and subsequently heated to 95° C. for two minutes in order to denature the DNA and to allow the primers to anneal. After cooling the mixture to 41° C., the enzyme mixture was added. The amplification took place at 41° C. for 90 minutes in a fluorimeter (CytoFluor 2000) and the fluorescent signal was measured every minute (using the filter set 530/25 nm and 485/30 nm). To achieve quantification, a dilution series of target sequence for a particular primer set was amplified and the time points at which the reactions became positive (the time to positivity, TTP) were plotted against the input amounts of nucleic acid. This way a calibration curve was created that could be used to read TTP values of reactions with unknown amounts of input and deduce the input amount. […] After five days, the cells were harvested and analyzed for an amount of chromosomal DNA (primers SnrpD p1 and SnrpD2 p2 and probe SnrpD mb) with the described NASBA protocol in the chapter “Used ingredients and general methodology” and compared with the NASBA protocol as described in this example. […]
Different ratios of mitochondrial RNA target and chromosomal DNA target in a plasmid were analyzed in this example: 2×10^3 U1a DNA/5×10^4 Mt RNA, 2×10^3 U1a DNA/2.5×10^5 Mt RNA, 2×10^3 U1a DNA/5×10^5 Mt RNA, 2×10^3 U1a DNA/2.5×10^6 Mt RNA, 2×10^3 U1a DNA/5×10^6 Mt RNA, 2×10^3 U1a DNA/10^7 Mt RNA, 2×10^3 U1a DNA/2.5×10^7 Mt RNA molecules were included. […]

Row | SMILES | change in mitochondrial RNA to mitochondrial DNA ratio (Fibroblast cells) | amount of mitochondrial RNA in continued culture in the absence of ddC (Fibroblasts; ddC 30 μM eight weeks, then without ddC (week 10, 12, 14 and 16)) | amount of mitochondrial RNA in continued culture in the presence of ddC (Fibroblasts; ddC 30 μM, after week eight, another eight weeks) | mitochondrial RNA of fibroblasts in the presence of ddC (Fibroblasts; ddC 30 μM, eight weeks, FIG. 23)
1 | Cc1cn([C@H]2C[C@H](N=[N+]=[N-])[C@@H](CO)O2)c(=O)[nH]c1=O [AZT] | no measurable change |  |  | 
2 | Nc1ccn([C@H]2CC[C@@H](CO)O2)c(=O)n1 [ddC] |  | clear rebound | remains very low | lose their mitochondrial RNA
